Assay: drug substance degradation on hot melt extrusion
Type: physicochemical
Conditions: hot melt extrusion at a temperature of 165° C.
Procedure: Compound 1, Compound 2 and ritonavir were extruded using melt-extrusion. 31 g of copovidone, 3.5 g of vitamin E TPGS and 1.0 g of propylene glycol monolaurate were granulated for 2 minutes in a mill. After two hours, the mixture was blended with 5.09 g of ritonavir, 1.27 g of Compound 2, 7.64 g of Compound 1 and 0.5 g colloidal silica for 2 minutes in a blender and subsequently sieved over a 1.0 mm mesh sieve. The mixture was extruded on a Haake/Thermo Fisher extruder at 165° C. at a screw speed of 30 rpm. The extrudate thus prepared contained 15% Compound 1, 10% ritonavir, 2.5% Compound 2, 62% copovidone, 1% colloidal silica (areosil 200), 7% vitamin E TPGS, and 2% propylene glycol monolaurate.
The tablet was also tested for stability. […] The degradation of each drug substance after melt extrusion was within the specifications.

CC(C)c1nc(CN(C)C(=O)N[C@H](C(=O)N[C@@H](Cc2ccccc2)C[C@H](O)[C@H](Cc2ccccc2)NC(=O)OCc2cncs2)C(C)C)cs1 [ritonavir]
ritonavir degradation when co-extruded with Compound 1 and Compound 2: well within the acceptable levels

— US20150141351A1, “Solid Pharmaceutical Compositions” (AbbVie Deutschland GmbH & Co. KG, priority 2013, published 2015)
